MIC data for 14 molecules are collected here from US10253039B2, “Inhibitors of bacterial DNA gyrase with efficacy against gram-negative bacteria” (priority 2014, dated 2019).

≈ marks a conversion by molar mass, not a printed value. Like-named read-outs stand apart in the source and are kept apart here.

What all share (format): cell-based
The test system of test [1] is E. coli BW25113. Briefly: MIC, microdilution in 96-well plates. Particulars: Escherichia coli, read-out: MIC. The gist of the method:
(§1)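 Broth microdilution per CLSI, 2-fold serial dilutions in Luria-Bertani medium with a 1:10000 inoculum from a growing subculture. Plates shaken at 37 °C for 16-18 h; MIC taken as lowest concentration showing no visible turbidity.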
For orientation: Broth dilution looks for growth in wells or tubes with falling amounts of substance.

For test [2], the system named is Edwardsiella tarda. Briefly: MIC, microdilution in 96-well plates. In short, it runs like this:
as §1

Test [3] concerns E. coli JW5503 (deltolC). Put plainly: MIC, 20-strain panel. The following applies: Escherichia coli. As to the method:
(§2) A microdilution method in 96-well plates was used and the MIC protocol established by the Clinical Laboratory Standards Institute was followed. From a growing subculture, a 1:10000 inoculum of each strain in Luria-Bertani media was prepared and aliquoted 100 μL in 4 columns of wells, except for the top row wells, which contained 200 μL of inoculum. A solution of gyramide C2 was aliquoted into 3 of the wells containing 200 μL and DMSO was added to the 4th well. The liquid in each of wells was mixed with a multi-channel pipet and 100 μL was transferred to the next well and mixed. The 2-fold dilution was continued down the 96-well plate until 100 μL was left, which was discarded. The plates were incubated at 37° C. with shaking for 16-18 hours. The MIC was determined as the lowest concentration that inhibited growth and had no turbidity by visual inspection.
(§3) Minimum inhibitory concentrations of various gyramide compounds against 20 strains of bacteria were determined using the procedure described above.

The subject of test [4] is E. coli MG1655. Briefly: MIC, 20-strain panel. Particulars: Escherichia coli, read-out: MIC. The protocol:
as §2, §3

The test system of test [5] is Klebsiella pneumoniae subsp. pneumoniae. Put plainly: MIC, 20-strain panel. As to the method:
as §2, §3

Test [6] relates to Salmonella enterica subsp. enterica typhimurium. Briefly: MIC, 20-strain panel. The protocol: as §2, §3
Test [7] relates to Shigella flexneri. Briefly: MIC, 20-strain panel. As to the method:
as §2, §3

Test [8] relates to Staphylococcus aureus subsp. aureus. Put plainly: MIC, 20-strain panel. The following applies: read-out: MIC. As to the method: as §2, §3
In test [9] the test system is Staphylococcus epidermidis. Put plainly: MIC, 20-strain panel. The protocol: as §2, §3
Test [10] concerns Staphylococcus saprophyticus subsp. saprophyticus. Briefly: MIC, 20-strain panel. The protocol:
as §2, §3

The subject of test [11] is Streptococcus agalactiae. Briefly: MIC, 20-strain panel. As to the method:
as §2, §3

Test [12] has as its system Streptococcus pyogenes. Briefly: MIC, 20-strain panel. The protocol:
as §2, §3

The mark [13] stands for this setting: E: Klebsiella pneumoniae subsp. pneumoniae.
Where [14] appears, read: F: Salmonella enterica subsp. enterica Typhimurium.
Setting [15] is: H: Staphylococcus aureus subsp. aureus.
[16] abbreviates: Klebsiella pneumoniae subsp. pneumoniae.
The mark [17] stands for this setting: Salmonella enterica subsp. enterica Typhimurium.
The mark [18] stands for this setting: Staphylococcus aureus subsp. aureus.

A word on the MIC: it is the least concentration at which growth counts as inhibited. As to `COc1ccccc1-c1ccc(CN2CC[C@@H](NS(=O)(=O)c3cccc(C(F)(F)F)c3)C2)cc1` [Compound 66], the MIC in test [1] (BW25113, B: E. coli BW25113) was over 8 µg/mL; in [2] (D: Edwardsiella tarda), over 8 µg/mL; in test [3] (C: E. coli JW5503 (deltolC)), 4 µg/mL (≈ 8.15 µM); in test [4] (MG1655, A: E. coli MG1655) it was over 8 µg/mL; in test [5] (setting [13]), over 8 µg/mL; in test [6] (setting [14]) it was over 8 µg/mL. Further, the MIC in test [7] (G: Shigella flexneri) is over 8 µg/mL; in test [8] (setting [15]) it was over 8 µg/mL; in test [9] it was 8 µg/mL (≈ 16.3 µM); in [10], over 8 µg/mL; in test [11], over 8 µg/mL; in [12], over 8 µg/mL.

As for `CC(C)Oc1ccc(CN2CC[C@@H](NS(=O)(=O)c3ncc[nH]3)C2)cc1` [Compound 136], the MIC in test [1] (BW25113, E. coli BW25113) was over 8 µg/mL; in test [2] it was over 8 µg/mL; in test [3] (E. coli JW5503 (deltolC)), about 8 µg/mL (≈ 21.9 µM); in test [4] (MG1655, E. coli MG1655), over 8 µg/mL; in test [5] (setting [16]) it was over 8 µg/mL; in test [6] (setting [17]), over 8 µg/mL. The MIC in test [7], in test [8] (setting [18]), in test [9], in test [10], in [11] and in test [12] was over 8 µg/mL each time.

On to `O=S(=O)(N[C@@H]1CCN(Cc2nc(-c3ccccc3)cs2)C1)c1cccc(OC(F)(F)F)c1` [Compound 107], for which the MIC in test [1] (BW25113, B: E. coli BW25113) is over 8 µg/mL; in test [2] (D: Edwardsiella tarda) it was over 8 µg/mL; in test [3] (C: E. coli JW5503 (deltolC)), over 8 µg/mL; in test [4] (MG1655, A: E. coli MG1655), over 8 µg/mL; in test [5] (setting [13]) it was over 8 µg/mL; in [6] (setting [14]), over 8 µg/mL. Further, the MIC in [7] (G: Shigella flexneri), in test [8] (setting [15]), in test [9], in test [10], in [11] and in test [12] was over 8 µg/mL throughout.

For the molecule `N#Cc1ccc(S(=O)(=O)N[C@@H]2CCN(Cc3ccc(-c4ccccc4)cc3)C2)cn1` [Compound 160], the MIC in test [1] (BW25113, E. coli BW25113) was over 8 µg/mL; in test [2], over 8 µg/mL; in [3] (E. coli JW5503 (deltolC)), over 8 µg/mL; in test [4] (MG1655, E. coli MG1655), over 8 µg/mL; in test [5] (setting [16]), over 8 µg/mL; in test [6] (setting [17]), over 8 µg/mL. The MIC in test [7], in test [8] (setting [18]), in test [9], in [10], in [11] and in test [12] was over 8 µg/mL in each case.

As to `N#Cc1cccc(S(=O)(=O)N[C@@H]2CCN(Cc3ccc(-c4cccc(Cl)c4)cc3)C2)c1` [Compound 24], the MIC in [1] (BW25113, B: E. coli BW25113) was over 8 µg/mL; in [2] (D: Edwardsiella tarda), over 8 µg/mL; in test [3] (C: E. coli JW5503 (deltolC)), 4 µg/mL (≈ 8.85 µM); in [4] (MG1655, A: E. coli MG1655), over 8 µg/mL; in test [5] (setting [13]) it was over 8 µg/mL; in test [6] (setting [14]), over 8 µg/mL. The MIC in test [7] (G: Shigella flexneri), in test [8] (setting [15]), in test [9], in [10], in test [11] and in test [12] was over 8 µg/mL each time.

With `CC(C)Oc1ccc(CN2CC[C@@H](NS(=O)(=O)c3cnc4ccsc4c3)C2)cc1` [Compound 164], the MIC was over 8 µg/mL in test [1] (BW25113, E. coli BW25113); over 8 µg/mL in test [2]; over 8 µg/mL in test [3] (E. coli JW5503 (deltolC)); over 8 µg/mL in test [4] (MG1655, E. coli MG1655); over 8 µg/mL in [5] (setting [16]); over 8 µg/mL in test [6] (setting [17]). In addition, the MIC in test [7], in test [8] (setting [18]), in test [9], in test [10], in [11] and in [12] was over 8 µg/mL throughout.

As to `O=S(=O)(N[C@@H]1CCN(Cc2ccc(SC(F)(F)F)cc2)C1)c1cccc(OC(F)(F)F)c1` [Compound 55], the MIC was over 8 µg/mL in test [1] (BW25113, B: E. coli BW25113); over 8 µg/mL in [2] (D: Edwardsiella tarda); 8 µg/mL (≈ 16 µM) in [3] (C: E. coli JW5503 (deltolC)); over 8 µg/mL in test [4] (MG1655, A: E. coli MG1655); over 8 µg/mL in test [5] (setting [13]); over 8 µg/mL in [6] (setting [14]). The MIC in test [7] (G: Shigella flexneri), in test [8] (setting [15]), in [9], in test [10], in [11] and in test [12] was over 8 µg/mL in each case.

Regarding `N#Cc1cccc(S(=O)(=O)N[C@@H]2CCN(Cc3ccc(-c4ccncc4)cc3)C2)c1` [Compound 67], the MIC was over 8 µg/mL in test [1] (BW25113, B: E. coli BW25113); over 8 µg/mL in test [2] (D: Edwardsiella tarda); 4 µg/mL (≈ 9.56 µM) in test [3] (C: E. coli JW5503 (deltolC)); over 8 µg/mL in [4] (MG1655, A: E. coli MG1655); over 8 µg/mL in [5] (setting [13]); over 8 µg/mL in test [6] (setting [14]). The MIC in test [7] (G: Shigella flexneri), in test [8] (setting [15]), in test [9], in test [10], in test [11] and in test [12] was over 8 µg/mL throughout.

As to `CSc1ccc(CN2CC[C@@H](NS(=O)(=O)c3cccc(C#N)c3)C2)cc1` [Compound 31], the MIC was over 8 µg/mL in test [1] (BW25113, B: E. coli BW25113); over 8 µg/mL in test [2] (D: Edwardsiella tarda); about 8 µg/mL (≈ 20.6 µM) in [3] (C: E. coli JW5503 (deltolC)); over 8 µg/mL in [4] (MG1655, A: E. coli MG1655); over 8 µg/mL in test [5] (setting [13]); over 8 µg/mL in [6] (setting [14]). The MIC in [7] (G: Shigella flexneri), in test [8] (setting [15]), in test [9], in [10], in test [11] and in [12] was over 8 µg/mL throughout.

As to `O=S(=O)(N[C@@H]1CCN(Cc2ccc(-c3ccccc3)cc2)C1)c1cc(C(F)(F)F)cc(C(F)(F)F)c1` [Compound 81], the MIC was over 8 µg/mL in test [1] (BW25113, B: E. coli BW25113); over 8 µg/mL in [2] (D: Edwardsiella tarda); over 8 µg/mL in test [3] (C: E. coli JW5503 (deltolC)); over 8 µg/mL in test [4] (MG1655, A: E. coli MG1655); over 8 µg/mL in test [5] (setting [13]); over 8 µg/mL in test [6] (setting [14]). Moreover, the MIC in [7] (G: Shigella flexneri) is over 8 µg/mL; in test [8] (setting [15]), over 8 µg/mL; in test [9], 8 µg/mL (≈ 15.1 µM); in test [10], over 8 µg/mL; in [11] it was over 8 µg/mL; in test [12], about 8 µg/mL (≈ 15.1 µM).

Consider `Cc1ccc(S(C)(=O)=O)cc1S(=O)(=O)N[C@@H]1CCN(Cc2ccc(OC3CC3)cc2)C1` [Compound 79], for which the MIC in test [1] (BW25113, B: E. coli BW25113) is over 8 µg/mL; in test [2] (D: Edwardsiella tarda), over 8 µg/mL; in [3] (C: E. coli JW5503 (deltolC)) it was over 8 µg/mL; in test [4] (MG1655, A: E. coli MG1655) it was over 8 µg/mL; in test [5] (setting [13]) it was over 8 µg/mL; in test [6] (setting [14]), over 8 µg/mL. Moreover, the MIC in [7] (G: Shigella flexneri), in test [8] (setting [15]), in [9], in test [10], in test [11] and in test [12] was over 8 µg/mL throughout.

With `Cc1c(CN2CC[C@@H](NS(=O)(=O)c3cccc(C(F)(F)F)c3)C2)cnn1-c1ccccc1` [Compound 56], the MIC is over 8 µg/mL in [1] (BW25113, B: E. coli BW25113); over 8 µg/mL in [2] (D: Edwardsiella tarda); over 8 µg/mL in test [3] (C: E. coli JW5503 (deltolC)); over 8 µg/mL in test [4] (MG1655, A: E. coli MG1655); over 8 µg/mL in test [5] (setting [13]); over 8 µg/mL in test [6] (setting [14]). The MIC in test [7] (G: Shigella flexneri), in [8] (setting [15]), in test [9], in test [10], in [11] and in test [12] was over 8 µg/mL each time.

As to `O=S(=O)(N[C@@H]1CCN(Cc2ccc(OC3CC3)cc2)C1)c1cnccc1Cl` [Compound 169], the MIC in [1] (BW25113, E. coli BW25113) was over 8 µg/mL; in test [2], over 8 µg/mL; in test [3] (E. coli JW5503 (deltolC)) it was over 8 µg/mL; in [4] (MG1655, E. coli MG1655), over 8 µg/mL; in [5] (setting [16]) it was over 8 µg/mL; in test [6] (setting [17]) it was over 8 µg/mL. For the same molecule, the MIC in test [7], in test [8] (setting [18]), in test [9], in test [10], in test [11] and in test [12] was over 8 µg/mL each time.

For `Cc1nn(C)c2ncc(S(=O)(=O)N[C@@H]3CCN(Cc4ccc(OC5CC5)cc4)C3)cc12` [Compound 157], the MIC in [1] (BW25113, E. coli BW25113) was over 8 µg/mL; in test [2], over 8 µg/mL; in [3] (E. coli JW5503 (deltolC)), over 8 µg/mL; in test [4] (MG1655, E. coli MG1655), over 8 µg/mL; in [5] (setting [16]) it was over 8 µg/mL; in [6] (setting [17]) it was over 8 µg/mL. The MIC in [7], in test [8] (setting [18]), in test [9], in test [10], in [11] and in test [12] was over 8 µg/mL each time.
